In ChEMBL document CHEMBL4680347, “Discovery of novel 1,3,5-triazine derivatives as potent inhibitor of cervical cancer via dual inhibition of PI3K/mTOR” (Bioorg Med Chem, 2021):

How the values were obtained:
[1] = biological target: Serine/threonine-protein kinase mTOR (Homo sapiens, UniProt P42345); test: Inhibition of mTOR (unknown origin) measured after 45 mins by LANCE Ultra assay
[2] = biological target: Phosphatidylinositol 4,5-bisphosphate 3-kinase catalytic subunit alpha isoform (Homo sapiens, UniProt P42336); test: Inhibition of PI3Kalpha (unknown origin) measured after 1 hr by ADP-glo plus luminescence assay
Sequence of Phosphatidylinositol 4,5-bisphosphate 3-kinase catalytic subunit alpha isoform (P42336 whole entry, canonical isoform): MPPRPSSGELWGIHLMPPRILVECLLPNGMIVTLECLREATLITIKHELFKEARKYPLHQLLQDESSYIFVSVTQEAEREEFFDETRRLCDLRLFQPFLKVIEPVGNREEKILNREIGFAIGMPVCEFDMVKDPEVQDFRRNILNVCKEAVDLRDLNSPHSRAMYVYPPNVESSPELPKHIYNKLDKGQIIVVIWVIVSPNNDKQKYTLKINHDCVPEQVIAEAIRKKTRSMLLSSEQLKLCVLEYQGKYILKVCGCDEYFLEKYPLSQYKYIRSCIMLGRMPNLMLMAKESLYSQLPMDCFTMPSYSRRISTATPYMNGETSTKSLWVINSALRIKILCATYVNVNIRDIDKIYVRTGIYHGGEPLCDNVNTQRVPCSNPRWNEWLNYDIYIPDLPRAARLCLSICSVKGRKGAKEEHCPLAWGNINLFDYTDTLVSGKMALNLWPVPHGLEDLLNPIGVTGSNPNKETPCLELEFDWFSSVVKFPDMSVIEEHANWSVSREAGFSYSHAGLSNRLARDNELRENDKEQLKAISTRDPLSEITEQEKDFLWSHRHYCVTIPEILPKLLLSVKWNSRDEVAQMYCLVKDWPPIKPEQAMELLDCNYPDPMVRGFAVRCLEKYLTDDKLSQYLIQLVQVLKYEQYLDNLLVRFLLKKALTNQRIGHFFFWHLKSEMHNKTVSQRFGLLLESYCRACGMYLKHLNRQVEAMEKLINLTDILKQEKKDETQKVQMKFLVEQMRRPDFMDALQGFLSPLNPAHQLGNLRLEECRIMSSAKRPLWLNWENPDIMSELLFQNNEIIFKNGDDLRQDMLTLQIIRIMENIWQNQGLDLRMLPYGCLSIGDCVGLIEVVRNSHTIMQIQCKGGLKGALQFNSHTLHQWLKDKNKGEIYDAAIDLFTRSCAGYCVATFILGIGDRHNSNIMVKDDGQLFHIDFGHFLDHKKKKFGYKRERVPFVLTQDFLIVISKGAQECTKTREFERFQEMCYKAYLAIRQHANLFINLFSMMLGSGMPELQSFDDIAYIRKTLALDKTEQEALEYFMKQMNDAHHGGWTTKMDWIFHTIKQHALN

| IC50 [1] [nM] | IC50 [2] [nM] | Structure (SMILES) |
| --- | --- | --- |
| 20.8 | 8.9 | COc1ccc(S(=O)(=O)N2CCN(c3nc(NCCN4CCOCC4)nc(N4CCOCC4)n3)CC2)cc1 |
| 35.3 | 55.4 | O=S(=O)(c1ccccc1Cl)N1CCN(c2nc(NCCN3CCOCC3)nc(N3CCOCC3)n2)CC1 |
| 35.3 | 88 | O=S(=O)(c1ccc(F)cc1)N1CCN(c2nc(NCCN3CCOCC3)nc(N3CCOCC3)n2)CC1 |
| 22.2 | 24.6 | COc1cccc(S(=O)(=O)N2CCN(c3nc(NCCN4CCOCC4)nc(N4CCOCC4)n3)CC2)c1 |
| 21.8 | 15.6 | O=S(=O)(c1cccc(O)c1)N1CCN(c2nc(NCCN3CCOCC3)nc(N3CCOCC3)n2)CC1 |
| 12.8 | 6.03 | Cc1ccc(S(=O)(=O)N2CCN(c3nc(NCCN4CCOCC4)nc(N4CCOCC4)n3)CC2)cc1 |
| – | 37.5 | O=S(=O)(c1cccc(Cl)c1)N1CCN(c2nc(NCCN3CCOCC3)nc(N3CCOCC3)n2)CC1 |
| 41.8 | 33.6 | O=[N+]([O-])c1ccc(S(=O)(=O)N2CCN(c3nc(NCCN4CCOCC4)nc(N4CCOCC4)n3)CC2)cc1 |
| 32.5 | 21.3 | O=S(=O)(c1ccccc1O)N1CCN(c2nc(NCCN3CCOCC3)nc(N3CCOCC3)n2)CC1 |
| 98.3 | 123 | O=S(=O)(c1ccccc1F)N1CCN(c2nc(NCCN3CCOCC3)nc(N3CCOCC3)n2)CC1 |
